According to PubChem BioAssay (NCI):
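Protocol summary: plate cells (96-well), add compound at 5 concentrations, incubate 48 h, interpolate endpoints linearly. At the GI50, growth is halved. TGI is the concentration that stops growth completely.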

Legend:
Assay in all cases: inhibition of tumour cell growth, NCI panel, 48 h
HL-60(TB) leukemia = test system: HL-60(TB) leukemia
HT29 colon = test system: HT29 colon
CCRF-CEM leukemia = test system: CCRF-CEM leukemia
HOP-62 NSCLC = test system: HOP-62 NSCLC
OVCAR-8 ovarian = test system: OVCAR-8 ovarian
TK-10 renal = test system: TK-10 renal
SNB-75 CNS = test system: SNB-75 CNS
SK-MEL-2 melanoma = test system: SK-MEL-2 melanoma
SN12C renal = test system: SN12C renal
EKVX NSCLC = test system: EKVX NSCLC
786-0 renal = test system: 786-0 renal
MOLT-4 leukemia = test system: MOLT-4 leukemia
SF-539 CNS = test system: SF-539 CNS
RXF 393 renal = test system: RXF 393 renal
HS 578T breast = test system: HS 578T breast
MDA-MB-435 = test system: MDA-MB-435
HCT-116 colon = test system: HCT-116 colon
UACC-257 melanoma = test system: UACC-257 melanoma
M14 melanoma = test system: M14 melanoma
IGROV1 ovarian = test system: IGROV1 ovarian
HOP-92 NSCLC = test system: HOP-92 NSCLC
A549 NSCLC = test system: A549 NSCLC
OVCAR-5 ovarian = test system: OVCAR-5 ovarian
SK-OV-3 ovarian = test system: SK-OV-3 ovarian
NCI-H23 lung = test system: NCI-H23 lung
MDA-MB-231 breast = test system: MDA-MB-231 breast
SNB-19 CNS = test system: SNB-19 CNS
K-562 leukemia = test system: K-562 leukemia
SF-295 CNS = test system: SF-295 CNS
NCI-H522 lung = test system: NCI-H522 lung
OVCAR-4 ovarian = test system: OVCAR-4 ovarian
BT-549 breast = test system: BT-549 breast
NCI-H226 lung = test system: NCI-H226 lung
RPMI-8226 leukemia = test system: RPMI-8226 leukemia
CAKI-1 renal = test system: CAKI-1 renal
MALME-3M melanoma = test system: MALME-3M melanoma
UO-31 renal = test system: UO-31 renal
SF-268 CNS = test system: SF-268 CNS
A498 renal = test system: A498 renal
U251 CNS = test system: U251 CNS
LOX IMVI melanoma = test system: LOX IMVI melanoma
NCI/ADR-RES ovarian = test system: NCI/ADR-RES ovarian
SK-MEL-5 melanoma = test system: SK-MEL-5 melanoma
KM12 colon = test system: KM12 colon
SR leukemia = test system: SR leukemia
SW-620 colon = test system: SW-620 colon
UACC-62 melanoma = test system: UACC-62 melanoma
OVCAR-3 ovarian = test system: OVCAR-3 ovarian
HCT-15 colon = test system: HCT-15 colon
MCF7 breast = test system: MCF7 breast
ACHN renal = test system: ACHN renal

Which results are given for `c1ccc(-c2cc3n4c(-c5ccccc5)nn(-c5ccccc5)c4cnc-3n2)cc1`?
GI50 (HL-60(TB) leukemia): > 50 µM; TGI (HL-60(TB) leukemia): > 50 µM; GI50 (HT29 colon): > 50 µM; TGI (HT29 colon): > 50 µM; GI50 (CCRF-CEM leukemia): > 50 µM; TGI (CCRF-CEM leukemia): > 50 µM; GI50 (HOP-62 NSCLC): 13.2 µM; TGI (HOP-62 NSCLC): > 50 µM; GI50 (OVCAR-8 ovarian): > 50 µM; TGI (OVCAR-8 ovarian): > 50 µM; GI50 (TK-10 renal): 19.3 µM; TGI (TK-10 renal): > 50 µM; GI50 (SNB-75 CNS): 5.39 µM; TGI (SNB-75 CNS): 17.8 µM; GI50 (SK-MEL-2 melanoma): > 50 µM; TGI (SK-MEL-2 melanoma): > 50 µM; GI50 (SN12C renal): > 50 µM; TGI (SN12C renal): > 50 µM; GI50 (EKVX NSCLC): 17 µM; TGI (EKVX NSCLC): > 50 µM; GI50 (786-0 renal): 19.8 µM; TGI (786-0 renal): > 50 µM; GI50 (MOLT-4 leukemia): > 50 µM; TGI (MOLT-4 leukemia): > 50 µM; GI50 (SF-539 CNS): 13.7 µM; TGI (SF-539 CNS): > 50 µM; GI50 (RXF 393 renal): 4.16 µM; TGI (RXF 393 renal): 33.8 µM; GI50 (HS 578T breast): 9.62 µM; TGI (HS 578T breast): > 50 µM; GI50 (MDA-MB-435): > 50 µM; TGI (MDA-MB-435): > 50 µM; GI50 (HCT-116 colon): 3.61 µM; TGI (HCT-116 colon): > 50 µM; GI50 (UACC-257 melanoma): > 50 µM; TGI (UACC-257 melanoma): > 50 µM; GI50 (M14 melanoma): > 50 µM; TGI (M14 melanoma): > 50 µM; GI50 (IGROV1 ovarian): > 50 µM; TGI (IGROV1 ovarian): > 50 µM; GI50 (HOP-92 NSCLC): 12 µM; TGI (HOP-92 NSCLC): > 50 µM; GI50 (A549 NSCLC): > 50 µM; TGI (A549 NSCLC): > 50 µM; GI50 (OVCAR-5 ovarian): > 50 µM; TGI (OVCAR-5 ovarian): > 50 µM; GI50 (SK-OV-3 ovarian): 11.8 µM; TGI (SK-OV-3 ovarian): > 50 µM; GI50 (NCI-H23 lung): > 50 µM; TGI (NCI-H23 lung): > 50 µM; GI50 (MDA-MB-231 breast): 16.4 µM; TGI (MDA-MB-231 breast): > 50 µM; GI50 (SNB-19 CNS): 12.5 µM; TGI (SNB-19 CNS): > 50 µM; GI50 (K-562 leukemia): > 50 µM; TGI (K-562 leukemia): > 50 µM; GI50 (SF-295 CNS): 2.35 µM; TGI (SF-295 CNS): > 50 µM; GI50 (NCI-H522 lung): > 50 µM; TGI (NCI-H522 lung): > 50 µM; GI50 (OVCAR-4 ovarian): 31.3 µM; TGI (OVCAR-4 ovarian): > 50 µM; GI50 (BT-549 breast): 48.6 µM; TGI (BT-549 breast): > 50 µM; GI50 (NCI-H226 lung): > 50 µM; TGI (NCI-H226 lung): > 50 µM; GI50 (RPMI-8226 leukemia): > 50 µM; TGI (RPMI-8226 leukemia): > 50 µM; GI50 (CAKI-1 renal): 15.1 µM; TGI (CAKI-1 renal): > 50 µM; GI50 (MALME-3M melanoma): 4.58 µM; TGI (MALME-3M melanoma): > 50 µM; GI50 (UO-31 renal): > 50 µM; TGI (UO-31 renal): > 50 µM; GI50 (SF-268 CNS): 10.1 µM; TGI (SF-268 CNS): > 50 µM; GI50 (A498 renal): 12.1 µM; TGI (A498 renal): > 50 µM; GI50 (U251 CNS): 7.85 µM; TGI (U251 CNS): > 50 µM; GI50 (LOX IMVI melanoma): > 50 µM; TGI (LOX IMVI melanoma): > 50 µM; GI50 (NCI/ADR-RES ovarian): > 50 µM; TGI (NCI/ADR-RES ovarian): > 50 µM; GI50 (SK-MEL-5 melanoma): > 50 µM; TGI (SK-MEL-5 melanoma): > 50 µM; GI50 (KM12 colon): > 50 µM; TGI (KM12 colon): > 50 µM; GI50 (SR leukemia): > 50 µM; TGI (SR leukemia): > 50 µM; GI50 (SW-620 colon): > 50 µM; TGI (SW-620 colon): > 50 µM; GI50 (UACC-62 melanoma): > 50 µM; TGI (UACC-62 melanoma): > 50 µM; GI50 (OVCAR-3 ovarian): > 50 µM; TGI (OVCAR-3 ovarian): > 50 µM; GI50 (HCT-15 colon): > 50 µM; TGI (HCT-15 colon): > 50 µM; GI50 (MCF7 breast): 4.26 µM; TGI (MCF7 breast): > 50 µM; GI50 (ACHN renal): > 50 µM; TGI (ACHN renal): > 50 µM
